According to PubChem BioAssay AID2503 (Sanford-Burnham Center for Chemical Genomics, 2010):
Calls of active or inactive are those of the source. How the calls were made is not given here.

What follows are compounds tested on MCF-7/NOD2 cells, MDP-induced IL-8 secretion (assay: inhibition of NOD2-driven IL-8 release, SAR follow-up, MCF-7/NOD2 cells, MDP stimulus, set 2 (AID 2503)).

Row | Compound | IC50
1 | COc1ccc(C(=O)Cn2c(N)nc3ccccc32)cc1 | > 25 µM (inactive)
2 | Cn1c(=O)[nH]c(=O)c2c1nc([N+](=O)[O-])n2Cc1ccccc1 | 1.31 µM
3 | Oc1ccc(N=Nc2ccccc2C(F)(F)F)c2cccnc12 | > 25 µM (inactive)
4 | Nc1nc2ccccc2n1CCOc1ccc(Cl)cc1 | > 25 µM (inactive)
5 | Cc1ccc(S(=O)(=O)n2c(=S)[nH]c3cc(C)ccc32)cc1 | > 25 µM (inactive)
6 | CC(C)Sc1nc2c(c(=O)[nH]c(=O)n2C)n1Cc1ccccc1 | > 25 µM (inactive)
7 | CCC(=O)Nc1nc2ccccc2n1Cc1ccc(Cl)cc1 | 13.2 µM
8 | C=CCn1c(SCCCc2ccccc2)nc2c1c(=O)[nH]c(=O)n2C | > 25 µM (inactive)
9 | Cc1ccc(S(=O)(=O)n2c(N)nc3ccccc32)cc1 | 17.3 µM
10 | O=C(Nc1nc2ccccc2n1Cc1ccc(Cl)cc1)c1ccco1 | > 25 µM (inactive)
11 | Nc1nc2ccccc2n1Cc1ccc(Cl)cc1 | 4.59 µM

The remaining lines, values ahead:

Row | IC50 | Compound
12 | > 25 µM (inactive) | CCCn1c(SCC(=O)Nc2nc3c(s2)CCCC3)nc2c1c(=O)n(C)c(=O)n2C
13 | > 25 µM (inactive) | C/C(Cl)=C\Cn1c(NCCc2ccccc2)nc2c1c(=O)n(C)c(=O)n2C
14 | > 25 µM (inactive) | COCCn1c(SCCCc2ccccc2)nc2c1c(=O)[nH]c(=O)n2C
15 | > 25 µM (inactive) | C/C=C/Cn1c(SCc2ccc(Cl)cc2)nc2c1c(=O)[nH]c(=O)n2C
16 | > 25 µM (inactive) | CCCn1c(SCCc2ccccc2)nc2c1c(=O)[nH]c(=O)n2C
17 | > 25 µM (inactive) | CC(C)n1c(SCCCc2ccccc2)nc2c1c(=O)[nH]c(=O)n2C
18 | > 25 µM (inactive) | C/C=C/Cn1c(SCCCc2ccccc2)nc2c1c(=O)[nH]c(=O)n2C
19 | > 25 µM (inactive) | CCCCn1c(SCC(=O)c2ccccc2)nc2c1c(=O)[nH]c(=O)n2C
20 | > 25 µM (inactive) | CCCCCn1c(SCCc2ccccc2)nc2c1c(=O)[nH]c(=O)n2C
21 | > 25 µM (inactive) | CCCCn1c(CN2CCN(c3cccc(Cl)c3)CC2)nc2c1c(=O)n(C)c(=O)n2C
22 | > 25 µM (inactive) | C/C=C/Cn1c(SCc2ccccc2)nc2c1c(=O)[nH]c(=O)n2C
23 | > 25 µM (inactive) | CCCCn1c(SCC(=O)Nc2nnc(CC)s2)nc2c1c(=O)n(C)c(=O)n2C
